IC50 and melting point data for 23 molecules are collected here from US7138411B2, “Substituted benzopyran derivatives for the treatment of inflammation” (G.D. Searle & Co., priority 1997, dated 2006).

For data set [1], the target named is T1, COX-2 (UniProt P35354).
T1 sequence (P35354 1-604): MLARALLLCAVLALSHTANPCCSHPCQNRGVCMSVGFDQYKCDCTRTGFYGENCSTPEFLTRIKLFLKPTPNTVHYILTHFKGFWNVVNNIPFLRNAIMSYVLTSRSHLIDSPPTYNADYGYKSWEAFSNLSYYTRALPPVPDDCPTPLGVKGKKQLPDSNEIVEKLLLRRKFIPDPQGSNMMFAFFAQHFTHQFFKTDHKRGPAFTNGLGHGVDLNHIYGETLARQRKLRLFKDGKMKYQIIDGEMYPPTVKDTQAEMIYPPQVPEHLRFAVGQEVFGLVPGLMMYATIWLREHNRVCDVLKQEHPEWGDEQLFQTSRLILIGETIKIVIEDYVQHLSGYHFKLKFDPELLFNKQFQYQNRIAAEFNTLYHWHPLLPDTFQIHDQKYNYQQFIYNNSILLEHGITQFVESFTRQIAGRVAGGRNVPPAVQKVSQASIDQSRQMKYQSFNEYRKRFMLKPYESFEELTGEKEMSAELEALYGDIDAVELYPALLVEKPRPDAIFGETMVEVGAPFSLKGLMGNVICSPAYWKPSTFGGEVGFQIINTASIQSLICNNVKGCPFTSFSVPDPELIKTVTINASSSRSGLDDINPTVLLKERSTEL
Put plainly: Fast assay for COX-2 activity (PGE2 ELISA). It is filed as biochemical, human or murine. Conditions: fast assay: 10 min pre-incubation at 25° C., reaction stopped after two minutes, pH 7.5.
Procedure: The homogenate was centrifuged at 10,000×G for 30 minutes, and the resultant supernatant was stored at −80° C. before being assayed for COX activity.
Fast Assay for COX-1 and COX-2 Activity
COX activity was assayed as PGE2 formed/μg protein/time using an ELISA to detect the prostaglandin released. CHAPS-solubilized insect cell membranes containing the appropriate COX enzyme were incubated in a potassium phosphate buffer (0.05 M Potassium phosphate, pH 7.5, 2 μM phenol,1 μM heme, 300 μM epinephrine) with the addition of 20 μl of 100 μM arachidonic acid (10 μM). […] The PGE2 formed was measured by standard ELISA technology (Cayman Chemical).

The target in data set [2] is T1, COX-2. Put plainly: Assay for COX-2 activity (PGE2 ELISA). The conditions noted are these: read-out: COX-2 IC50; 10–20 minutes pre-incubation, reaction stopped after ten minutes, pH 8.0.
In another data set the target is COX-1 (UniProt P23219). Put plainly: Assay for COX-1 activity (PGE2 ELISA). Conditions: read-out: COX-1 IC50; 10–20 minutes pre-incubation, reaction stopped after ten minutes, pH 8.0.

Each structure is given as a SMILES string. Some results are limits rather than exact numbers.

Procedure for COX-1: Recombinant baculoviruses were isolated by transfecting 4 μg of baculovirus transfer vector DNA into SF9 insect cells (2×10^8) along with 200 ng of linearized baculovirus plasmid DNA by the calcium phosphate method. […] Recombinant viruses were purified by three rounds of plaque purification and high titer (10^7–10^8 pfu/mL) stocks of virus were prepared. For large scale production, SF9 insect cells were infected in 10 liter fermentors (0.5×10^6/mL) with the recombinant baculovirus stock such that the multiplicity of infection was 0.1. […] The homogenate was centrifuged at 10,000×G for 30 minutes, and the resultant supernatant was stored at −80° C. before being assayed for COX activity.
Assay for COX-1 and COX-2 Activity
COX activity was assayed as PGE2 formed/μg protein/time using an ELISA to detect the prostaglandin released. CHAPS-solubilized insect cell membranes containing the appropriate COX enzyme were incubated in a potassium phosphate buffer (50 mM, pH 8.0) containing epinephrine, phenol, and heme with the addition of arachidonic acid (10 μM). […] The PGE2 formed was measured by standard ELISA technology (Cayman Chemical).

For `O=C(O)C1=Cc2cc(Oc3ccc(C(F)(F)F)cc3)ccc2OC1C(F)(F)F` (centres unmarked) [Example 101, 2-(Trifluoromethyl)-6-[4-(trifluoromethyl)phenoxy)-2H-1-benzopyran-3-carboxylic acid], the melting point lay in the range of 153.5 to 154.4 °C. The IC50 against COX-2 [1] was less than 100 nM. Also, the IC50 on COX-2 [2] is less than 100 nM. At COX-1, the IC50 worked out at 16000 nM.
In turn, `O=C(O)C1=Cc2cc(Oc3ccc(Cl)cc3)ccc2OC1C(F)(F)F` (centres unmarked) [Example 104, 6-(4-Chlorophenoxy)-2-(trifluoromethyl)-2H-1-benzopyran-3-carboxylic acid] gave a melting point of 140.5 to 142.5 °C. The same molecule registered a half-inhibitory concentration (IC50) against COX-2 [1] of less than 100 nM. Besides, the IC50 on COX-2 [2] was less than 100 nM. The IC50 on COX-1 is 8200 nM.
Take `O=C(O)C1=Cc2c(ccc3oc4ccccc4c23)OC1C(F)(F)F` (centres unmarked) [Example 106, 3-(Trifluoromethyl)-3H-benzofuro[3,2-f][1]benzopyran-2-carboxylic acid]: the melting point is 253.5 to 256 °C. Half-maximal inhibition against COX-2 [1] (IC50) required 200 nM. The IC50 at COX-2 [2] was less than 100 nM. Further, on COX-1, the IC50 was 5700 nM.
The corresponding values for `C=Cc1cc(Cl)cc2c1OC(C(F)(F)F)C(C(=O)O)=C2` (centres unmarked) [Example 114, 6-Chloro-8-ethenyl-2-(trifluoramethyl)-2H-1-benzopyran-3-carboxylic acid] are 183.2 to 185.8 °C, less than 100 nM, less than 100 nM and less than 100 nM.
The corresponding values for `O=C(O)C1=Cc2cc(Cl)cc(-c3cccs3)c2OC1C(F)(F)F` (centres unmarked) [Example 116, 6-Chloro-8-(2-thienyl)-2-(trifluoromethyl)-2H-1-benzopyran-3-carboxylic acid] are 257.5 to 258.8 °C, less than 100 nM, less than 100 nM and less than 100 nM.
On the same counts, the results for `O=C(O)C1=Cc2cc(Cl)cc(C#Cc3ccccc3)c2OC1C(F)(F)F` (centres unmarked) [Example 120, 6-Chloro-8-(phenylethynyl)-2-(trifluoromethyl)-2H-1-benzopyran-3-carboxylic acid] are 190.1 to 192.1 °C, less than 100 nM, less than 100 nM and 33000 nM.
The molecule `O=C(O)C1=Cc2cc(Cl)cc(-c3ccc(Cl)cc3)c2OC1C(F)(F)F` (centres unmarked) [Example 125, 6-Chloro-8-(4-chlorophenyl)-2-(trifluoromethyl)-2H-1-benzopyran-3-carboxylic acid] came in with a melting point of 205.5 to 207.3 °C. The molecule also yielded an IC50 at COX-2 [1] of less than 100 nM. At COX-2 [2], the IC50 was less than 100 nM. In addition, at COX-1, the IC50 is less than 100 nM.
Molecule `O=C(O)C1=Cc2cc(Cl)cc(-c3ccccc3)c2OC1C(F)(F)F` (centres unmarked) [Example 129, 6-Chloro-8-phenyl-2-(trifluoromethyl)-2H-1-benzopyran-3-carboxylic acid] had a melting point of 196.3 to 197.7 °C. Further, at COX-2 [1], 200 nM corresponded to half-maximal inhibition (IC50). For the same molecule, the IC50 at COX-2 [2] is less than 100 nM. The IC50 on COX-1 is 300 nM.
For the molecule `O=C(O)C1=Cc2cc(-c3ccc(Br)cc3)ccc2OC1C(F)(F)F` (centres unmarked) [Example 138, 6-(4-Bromophenyl)-2-(trifluoromethyl)-2H-1-benzopyran-3-carboxylic acid], the melting point lay within 215 to 216 °C. The molecule also displayed an IC50 at COX-2 [1] of 300 nM. Besides, the IC50 on COX-2 [2] was less than 100 nM. The concentration for half-maximal inhibition (IC50) on COX-1 came to 11100 nM.
The corresponding values for `O=C(O)C1=Cc2cc(Cl)c(Cl)cc2SC1C(F)(F)F` (centres unmarked) [Example 154, 6,7-Dichloro-2-(trifluoromethyl)-2H-1-benzothiopyran-3-carboxylic acid] are 262.5 to 263.5 °C, 500 nM, less than 100 nM and 37000 nM.
The corresponding values for `O=C(O)C1=Cc2cc(SC(F)(F)F)ccc2SC1C(F)(F)F` (centres unmarked) [Example 155, 2-(Trifluoromethyl)-6-[(trifluoromethyl)thio]-2H-1-benzothiopyran-3-carboxylic acid] are 129.3 to 132.4 °C, less than 100 nM, less than 100 nM and less than 100 nM.
In turn, `O=C(O)C1=Cc2ccc(Oc3ccccc3)cc2OC1C(F)(F)F` (centres unmarked) [Example 176, 7-Phenoxy-2-(trifluoromethyl)-2H-1-benzopyran-3-carboxylic acid] returned a melting point of 180 to 181 °C. The concentration for half-maximal inhibition (IC50) against COX-2 [1] is less than 100 nM. Further, on COX-2 [2], the IC50 was 2000 nM. The IC50 at COX-1 worked out at 3300 nM.
On the same counts, the results for `CC(C)(CO)c1cc2c(cc1Cl)C=C(C(=O)O)C(C(F)(F)F)O2` (centres unmarked) [Example 178, 6-Chloro-7-(2-hydroxy-1,1-dimethylethyl)-2-(trifluoromethyl)-2H-1-benzopyran-3-carboxylic acid] are 203.8 to 205.4 °C, 8400 nM, 14700 nM and more than 100000 nM.
`CC(C)(CO)c1ccc2c(c1)OC(C(F)(F)F)C(C(=O)O)=C2` (centres unmarked) [Example 179, 7-(2-Hydroxy-1,1-dimethylethyl)-2-(trifluoromethyl)-2H-1-benzopyran-3-carboxylic acid] registered a melting point of 228.9 to 230 °C. Besides, half-maximal inhibition at COX-2 [1] (IC50) was put at 15600 nM. Moreover, the IC50 at COX-2 [2] worked out at 16000 nM. In addition, the IC50 at COX-1 is more than 100000 nM.
The corresponding values for `O=C(O)C1=Cc2cc(Cl)c(I)cc2OC1C(F)(F)F` (centres unmarked) [Example 180, 6-Chloro-7-iodo-2-(trifluoromethyl)-2H-1-benzopyran-3-carboxylic acid] are 224.9 to 225.9 °C, less than 100 nM, less than 100 nM and more than 100000 nM.
In the case of `C#Cc1cc2c(cc1Cl)C=C(C(=O)O)C(C(F)(F)F)O2` (centres unmarked) [Example 181, 6-Chloro-7-ethynyl-2-(trifluoromethyl)-2H-1-benzopyran-3-carboxylic acid], the melting point was more than 300 °C. The molecule also returned a half-inhibitory concentration (IC50) at COX-2 [1] of 1500 nM. At COX-2 [2], the half-inhibitory concentration (IC50) was more than 100000 nM. On COX-1, the IC50 was more than 100000 nM.
`C=Cc1cc2c(cc1Cl)C=C(C(=O)O)C(C(F)(F)F)O2` (centres unmarked) [Example 182, 6-Chloro-7-ethenyl-2-(trifluoromethyl)-2H-1-benzopyran-3-carboxylic acid]: the melting point is > 200 °C (dec.). In addition, at COX-2 [1], the IC50 was less than 100 nM. For the same molecule, the IC50 on COX-2 [2] was more than 100000 nM. Moreover, the IC50 on COX-1 is more than 100000 nM.
With `COc1ccc(Oc2cc3c(cc2Cl)C=C(C(=O)O)C(C(F)(F)F)O3)cc1` (centres unmarked) [Example 183, 6-Chloro-7-(4-methoxyphenoxy)-2-(trifluoromethyl)-2H-1-benzopyran-3-carboxylic acid], the melting point was in the range of 213.2 to 214.3 °C. At COX-2 [1], this molecule came in with an IC50 of less than 100 nM. Further, on COX-2 [2], the IC50 was less than 100 nM. In addition, the IC50 on COX-1 turned out to be 4100 nM.
With `O=C(O)C1=Cc2cc(Cl)c(Oc3ccc(Cl)cc3)cc2OC1C(F)(F)F` (centres unmarked) [Example 184, 6-Chloro-7-(4-chlorophenoxy)-2-(trifluoromethyl)-2H-1-benzopyran-3-carboxylic acid], the melting point fell in the range of 205.4 to 206.5 °C. Further, the IC50 against COX-2 [1] is less than 100 nM. The IC50 on COX-2 [2] is less than 100 nM. For the same molecule, the 50% inhibitory concentration (IC50) on COX-1 amounted to 1300 nM.
The molecule `N#Cc1ccc(Oc2cc3c(cc2Cl)C=C(C(=O)O)C(C(F)(F)F)O3)cc1` (centres unmarked) [Example 185, 6-Chloro-7-(4-cyanophenoxy)-2-(trifluoromethyl)-2H-1-benzopyran-3-carboxylic acid] gave a melting point of 212.5 to 215.7 °C. Besides, the IC50 at COX-2 [1] was less than 100 nM. Further, on COX-2 [2], the IC50 was less than 100 nM. The IC50 at COX-1 is more than 100000 nM.
Consider `O=C(O)C1=Cc2cc(Cl)c(Oc3ccc(C(F)(F)F)cc3)cc2OC1C(F)(F)F` (centres unmarked) [Example 186, 6-Chloro-2-(trifluoromethyl)-7-[4-(trifluoromethyl)phenoxy]-2H-1-beazopyran-3-carboxylic acid], for which the melting point is 230.9 to 232 °C. The molecule also displayed an IC50 against COX-2 [1] of less than 100 nM. The IC50 on COX-2 [2] worked out at 3400 nM. The IC50 on COX-1 came out at 32800 nM.
On the same counts, the results for `O=C(O)C1=Cc2cc(Cl)c(Oc3ccc(OC(F)(F)F)cc3)cc2OC1C(F)(F)F` (centres unmarked) [Example 187, 6-Chloro-2-(trifluoromethyl)-7-[4-(trifluoromethoxy)phenoxy]-2H-1-benzopyran-3-carboxlic acid] are 198 to 199.2 °C, 2900 nM, 33700 nM and more than 100000 nM.
`O=C(O)C1=Cc2cc(Cl)c(Oc3ccc4cc(Br)ccc4c3)cc2OC1C(F)(F)F` (centres unmarked) [Example 189, 7-[(6-Bromo-2-naphthalenyl)oxy]-6-chloro-2-(trifluoromethyl)-2H-1-benzopyran-3-carboxylic acid]: the melting point lay within 252.6 to 254.8 °C. This molecule also gave an IC50 at COX-2 [1] of less than 100 nM. In addition, at COX-2 [2], the IC50 came out at 1200 nM. Besides, the concentration for half-maximal inhibition (IC50) on COX-1 was 44800 nM.
